Assays:
Homo sapiens = species on record: Homo sapiens; test: Ratio of AUC for compound to omeprazolein human; assay type: ADME, organism-based; settings: in vivo
Liver microsome [1] = test: Drug metabolism in human liver microsomes assessed as dextrorphan formation measured as intrinsic unbound clearance; assay type: ADME
Liver microsome [2] = test: Drug metabolism in human liver microsomes assessed as dextrorphan formation; assay type: ADME
Liver microsome [3] = test: Drug metabolism in human liver microsomes assessed as dextrorphan formation measured as intrinsic clearance; assay type: ADME
Liver microsome [4] = test: Drug metabolism in human liver microsomes assessed as dextrorphan formation measured per mg of microsomal protein; assay type: ADME
Liver microsome [5] = test: Drug metabolism in human liver microsomes assessed as dextrorphan formation measured as plasma fraction unbound; assay type: ADME, cell-free
Liver microsome [6] = test: Drug metabolism in human liver microsomes assessed as dextrorphan formation measured as microsomal fraction unbound; assay type: ADME
Liver microsome [7] = test: Drug metabolism in human liver metabolism assessed as omeprazole sulfone depletion measured as intrinsic unbound clearance per mg of microsomal protein; assay type: ADME; settings: microsomes
Liver microsome [8] = test: Drug metabolism in human liver metabolism assessed as 5OH-omeprazole formation; assay type: ADME, tissue-based
Liver microsome [9] = test: Drug metabolism in human liver metabolism assessed as omeprazole sulfone formation measured as intrinsic unbound clearance per mg of microsomal protein; assay type: ADME; settings: microsomes
Liver microsome [10] = test: Drug metabolism in human liver metabolism assessed as omeprazole sulfone formation measured as intrinsic clearance per mg of microsomal protein; assay type: ADME; settings: microsomes
Liver microsome [11] = test: Drug metabolism in human liver metabolism assessed as 5OH-omeprazole formation measured per mg of microsomal protein; assay type: ADME; settings: microsomes
Hepatocyte [12] = test: Drug metabolism in human hepatocytes assessed as omeprazole sulfone formation measured per 10^6 cells as intrinsic unbound clearance; assay type: ADME, cell-based
Liver microsome [13] = test: Drug metabolism in human liver metabolism assessed as omeprazole sulfone depletion measured as plasma fraction unbound; assay type: ADME, cell-free
Liver microsome [14] = test: Drug metabolism in human liver metabolism assessed as omeprazole sulfone depletion measured as microsomal fraction unbound; assay type: ADME; settings: microsomes
Liver microsome [15] = test: Drug metabolism in human liver metabolism assessed as 5OH-omeprazole formation measured as microsomal fraction unbound; assay type: ADME; settings: microsomes
Hepatocyte [16] = test: Drug metabolism in human hepatocytes assessed as omeprazole sulfone depletion measured per 10^6 cells as intrinsic unbound clearance; assay type: ADME, cell-based
Liver microsome [17] = test: Drug metabolism in human liver metabolism assessed as omeprazole sulfone formation measured as microsomal fraction unbound per mg of microsomal protein; assay type: ADME; settings: microsomes
Liver microsome [18] = test: Drug metabolism in human liver metabolism assessed as omeprazole sulfone depletion measured as intrinsic clearance per mg of microsomal protein; assay type: ADME; settings: microsomes
Hepatocyte [19] = test: Drug metabolism in human hepatocytes assessed as 5OH-omeprazole depletion measured per 10^6 cells as intrinsic unbound clearance; assay type: ADME, cell-based
Hepatocyte [20] = test: Drug metabolism in human hepatocytes assessed as 5OH-omeprazole formation measured per 10^6 cells as intrinsic unbound clearance; assay type: ADME, cell-based
Liver microsome [21] = test: Drug metabolism in human liver metabolism assessed as 5OH-omeprazole formation measured as intrinsic unbound clearance per mg of microsomal protein; assay type: ADME; settings: microsomes
Liver microsome [22] = test: Drug metabolism in human liver metabolism assessed as omeprazole sulfone formation measured as plasma fraction unbound; assay type: ADME, cell-free
Liver microsome [23] = test: Drug metabolism in human liver metabolism assessed as 5OH-omeprazole formation measured as plasma fraction unbound; assay type: ADME, cell-free
Liver microsome [24] = test: Drug metabolism in human liver metabolism assessed as 5OH-omeprazole formation measured as intrinsic clearance per mg of microsomal protein; assay type: ADME; settings: microsomes
Liver microsome [25] = test: Drug metabolism in human liver metabolism assessed as omeprazole sulfone formation; assay type: ADME, tissue-based
Liver microsome [26] = test: Drug metabolism in human liver metabolism assessed as omeprazole sulfone formation measured per mg of microsomal protein; assay type: ADME; settings: microsomes

COc1ccc2nc(S(=O)(=O)Cc3ncc(C)c(OC)c3C)[nH]c2c1 [OMEPRAZOLE SULFONE]
Ratio AUC (Homo sapiens): 0.85

COc1ccc2c(c1)[C@]13CCCC[C@@H]1[C@H](C2)N(C)CC3 [DEXTROMETHORPHAN]
CL free (Liver microsome [1]): 14 µL/min/mg | Km (Liver microsome [2]): 5 µM | CLH (Liver microsome [3]): 13 µL/min/mg | Vmax (Liver microsome [4]): 0.066 nmol/min | Fu (Liver microsome [5]): 0.72 | Fu (Liver microsome [6]): 0.93

COc1ccc2[nH]c([S+]([O-])Cc3ncc(CO)c(OC)c3C)nc2c1 (stereo not drawn)
Ratio AUC (Homo sapiens): 0.48

COc1ccc2[nH]c([S+]([O-])Cc3ncc(C)c(OC)c3C)nc2c1 (stereo not drawn) [OMEPRAZOLE]
CL free (Liver microsome [7]): 35 µL/min/mg | Km (Liver microsome [8]): 16 µM | CL free (Liver microsome [9]): 7.7 µL/min/mg | CLint (Liver microsome [10]): 6.6 µL/min/mg | Vmax (Liver microsome [11]): 0.11 nmol/min/mg | CL free (Hepatocyte [12]): 3.6 uL/hr/10^6cells | Fu (Liver microsome [13]): 0.0048 | Fu (Liver microsome [14]): 0.92 | Fu (Liver microsome [15]): 0.86 | CL free (Hepatocyte [16]): 48 uL/hr/10^6cells | Fu (Liver microsome [17]): 0.86 | CLint (Liver microsome [18]): 32 µL/min/mg | CL free (Hepatocyte [19]): 100 uL/hr/10^6cells | CL free (Hepatocyte [20]): 55 uL/hr/10^6cells | CL free (Liver microsome [21]): 8.2 µL/min/mg | Fu (Liver microsome [22]): 0.061 | Fu (Liver microsome [23]): 0.061 | CLint (Liver microsome [24]): 7.1 µL/min/mg | Km (Liver microsome [25]): 11 µM | Vmax (Liver microsome [26]): 0.074 nmol/min/mg
